We go through 1 compound from PubChem BioAssay AID651709 (Sanford-Burnham Center for Chemical Genomics, 2012).

The target of the experiment is Probable nicotinate-nucleotide adenylyltransferase (Staphylococcus aureus (strain N315)) (UniProt P65502). The experiment can be described thus: potency of S. aureus NadD blockers – biochemical, colorimetric, set 2, dose response (AID 651709). As to conditions: purified S. aureus NadD, colorimetric enzyme assay.
Probable nicotinate-nucleotide adenylyltransferase (Staphylococcus aureus (strain N315)), sequence (P65502 whole entry, looked up): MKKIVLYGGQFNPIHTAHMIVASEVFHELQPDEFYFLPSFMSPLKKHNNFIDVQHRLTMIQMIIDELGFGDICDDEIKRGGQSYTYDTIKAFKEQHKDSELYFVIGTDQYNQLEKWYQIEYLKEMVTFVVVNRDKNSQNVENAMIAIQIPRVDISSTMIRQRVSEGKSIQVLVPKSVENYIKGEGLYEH

A word on the IC50: it is the concentration that inhibits the measured activity by half. Consider `C[c-]1[c-](C)[c-](C)[c-](C)[c-]1C.[Fe].c1cc2nccc(N3CCCC3)[c-]2c1` (stereo unspecified), for which the half-maximal inhibitory concentration (IC50) is 50 µM.
